Data published in US6428969B1, “Method for determining oncogenic activity of a substance” (Ludwig Institute for Cancer Research, priority 1997, dated 2002).

B1: IFNγ: cytokine interferonγ; human IFNγ used on human tumor cell lines (protein, UniProt P01579 24-161, looked up)
Interferon gamma: QDPYVKEAENLKKYFNAGHSDVADNGTLFLGILKNWKEESDRKIMQSQIVSFYFKLFKNFKDDQSIQKSVETIKEDMNVKFFNSNKKKRDDFEKLTNYSVTDLNVQRKAIHELIQVMAELSPAAKTGKRKRSQMLFRG

What was measured:
p53−/+ mice = settings: cited from earlier work
SK-LC-11 = assay: MHC class I surface expression by flow cytometry; type: cell-based, human; settings: IFNγ 1000 IRU/ml or IFNαA/D 1000 U/ml, 72 hr, mean channel shift vs untreated cells
Description: (§1) To address this question IFNγ responsiveness was examined in a variety of tumor cell lines obtained from human tumor cell banks. Established cell lines were cultured in the presence of either buffer, human IFNγ (1000 IRU/ml), or human IFNαA/D (1000 U/ml) for 72 hr followed by quantitation of MHC class I surface expression by flow cytometry with the antibody W6/32 as previously described (Farrar et al., supra). W6/32 is a murine monoclonal antibody specific for a framework region of human MHC Class I and was kindly provided by Dr. Thalachallour Mohanakumar (Washington University, St. Louis, Mo.). IFNγ-dependent STAT1 activation was assessed by treating cells with either PBS or human IFNγ at 10,000 IRU/ml for 5 minutes at 37° C. followed by subjecting 5 μg of nuclear extract to EMSA using a ^32P-labeled GRR probe as described by Greenlund et al., EMBO J. 13:1591, 1994, which is incorporated herein by reference.
(§2) The experiment was repeated with 17 human adenocarcinoma cell lines and the data are shown in Table I below, with the induction of MHC class I expression represented as the mean channel shift between IFNγ-treated cells and untreated cells. […] The CALU-5 cell line was also insensitive to IFNα. None of the cell lines examined show IFNα-specific unresponsiveness.

SK-LC-7 = assay: MHC class I surface expression by flow cytometry; type: cell-based, human; settings: for MHC Class I Enhancement (MCS): IFNγ 1000 IRU/ml or IFNαA/D 1000 U/ml, 72 hr, mean channel shift vs untreated cells
Description: as §1, §2

CALU-3 = assay: MHC class I surface expression by flow cytometry; type: cell-based, human; settings: IFNγ 1000 IRU/ml or IFNαA/D 1000 U/ml, 72 hr, mean channel shift vs untreated cells
Description: as §1, §2

CALU-5 = assay: MHC class I surface expression by flow cytometry; type: cell-based, human; settings: for MHC Class I Enhancement (MCS): IFNγ 1000 IRU/ml or IFNαA/D 1000 U/ml, 72 hr, mean channel shift vs untreated cells
Description: as §1, §2

SK-LC-4 = assay: MHC class I surface expression by flow cytometry; type: cell-based, human; settings: IFNγ 1000 IRU/ml or IFNαA/D 1000 U/ml, 72 hr, mean channel shift vs untreated cells
Description: as §1, §2

SK-LC-15 = assay: MHC class I surface expression by flow cytometry; type: cell-based, human; settings: IFNγ 1000 IRU/ml or IFNαA/D 1000 U/ml, 72 hr, mean channel shift vs untreated cells
Description: as §1, §2

SK-LC-19 = assay: MHC class I surface expression by flow cytometry; type: cell-based, human; settings: for MHC Class I Enhancement (MCS): SK-LC-19, IFNγ 1000 IRU/ml or IFNαA/D 1000 U/ml, 72 hr, mean channel shift vs untreated cells
Description: as §1, §2

SK-LU-1 = assay: MHC class I surface expression by flow cytometry; type: cell-based, human; settings: IFNγ 1000 IRU/ml or IFNαA/D 1000 U/ml, 72 hr, mean channel shift vs untreated cells
Description: as §1, §2

SK-LC-12 = assay: MHC class I surface expression by flow cytometry; type: cell-based, human; settings: IFNγ 1000 IRU/ml or IFNαA/D 1000 U/ml, 72 hr, mean channel shift vs untreated cells
Description: as §1, §2

SK-LC-9 = assay: MHC class I surface expression by flow cytometry; type: cell-based, human; settings: IFNγ 1000 IRU/ml or IFNαA/D 1000 U/ml, 72 hr, mean channel shift vs untreated cells
Description: as §1, §2

A457 = assay: MHC class I surface expression by flow cytometry; type: cell-based, human; settings: IFNγ 1000 IRU/ml or IFNαA/D 1000 U/ml, 72 hr, mean channel shift vs untreated cells
Description: as §1, §2

SK-LC-2 = assay: MHC class I surface expression by flow cytometry; type: cell-based, human; settings: for MHC Class I Enhancement (MCS): IFNγ 1000 IRU/ml or IFNαA/D 1000 U/ml, 72 hr, mean channel shift vs untreated cells
Description: as §1, §2

SK-LC-16 = assay: MHC class I surface expression by flow cytometry; type: cell-based, human; settings: IFNγ 1000 IRU/ml or IFNαA/D 1000 U/ml, 72 hr, mean channel shift vs untreated cells
Description: as §1, §2

SK-LC-10 = assay: MHC class I surface expression by flow cytometry; type: cell-based, human; settings: IFNγ 1000 IRU/ml or IFNαA/D 1000 U/ml, 72 hr, mean channel shift vs untreated cells
Description: as §1, §2

A549 = assay: MHC class I surface expression by flow cytometry; type: cell-based, human; settings: IFNγ 1000 IRU/ml or IFNαA/D 1000 U/ml, 72 hr, mean channel shift vs untreated cells
Description: as §1, §2

SK-LC-1 = assay: MHC class I surface expression by flow cytometry; type: cell-based, human; settings: IFNγ 1000 IRU/ml or IFNαA/D 1000 U/ml, 72 hr, mean channel shift vs untreated cells
Description: as §1, §2

SK-LC-20 = assay: MHC class I surface expression by flow cytometry; type: cell-based, human; settings: IFNγ 1000 IRU/ml or IFNαA/D 1000 U/ml, 72 hr, mean channel shift vs untreated cells
Description: as §1, §2

[1] = tested on: IFNγ-responsive and IFNγ-unresponsive mice; assay: Histologic comparison of MCA-induced tumors; type: in vivo; settings: three mouse strains; data not shown
Description: Both types of IFNγ insensitive mice developed MCA-induced tumors more frequently than wild-type mice. Tumor formation was detected in IFNγR^−/− mice treated with as little as 6.25 μg MCA.

wild type 129/Sv/Ev mice = assay: MCA-induced tumor formation at the injection site; type: in vivo, mouse; settings: for tumor development: Example 5
Excerpt: (§3) Initially, tumor formation was examined in groups of 15-20 IFNγR^−/^− mice generated as described in Example 1 and wild type inbred 129/Sv/Ev mice as controls. All animals were greater than 6 weeks old (ranging in age from about 6 to about 12 weeks). The 129/Sv/Ev background was specifically chosen for these experiments since 129/Sv/Ev mice are relatively resistant to the tumorigenic actions of MCA and the pure background of the mice insured that in vivo growth of the resulting tumors could be studied using tumor transplantation approaches. The knockout and control mice were injected subcutaneously in a single dose with 25, 100, or 400 μg of the chemical carcinogen 3-methylcholanthrene (MCA) diluted in peanut oil and monitored for tumor development at the injection site for a period of 130 days. The results are shown in FIG. 1A, which represents the percentage of mice in each group with a tumor over 5 mm as a function of the number of days after injection.
(§4) Groups of IFNγR^−/− mice and STAT1^−/^− mice were generated as described in Examples 1 and 2 and compared to a control group of 129/Sv/Ev wild-type mice. All animals were greater than 6 weeks old (ranging in age from about 6 to about 12 weeks). Each of 20-25 animals per group, were injected subcutaneously with a single dose of MCA at 1.5, 6.25, 25, 100 or 400 μg and monitored for tumor development.

IFNγR−/− mice = assay: MCA-induced tumor formation at the injection site; type: in vivo, mouse
Excerpt: as §3, §4

α chain knockout mice = settings: mouse, in vivo; cited from earlier work
[2] = tested on: perforin-deficient (PKO) mice; settings: subcutaneous injection; cited from earlier work
Stat1−/− mice = assay: MCA-induced tumor formation at the injection site; type: in vivo, mouse
Description: as §4

RADgR.28.mgR cells = assay: Antiproliferative or anti-metabolic effects of IFNγ in culture; type: cell-based, mouse; settings: IFNγ alone or in combination with other cytokines, in vitro; data not shown
Excerpt: Having identified the tumor cell as the major target of IFNγ's actions, experiments were designed to define the mechanism underlying the rejection process. IFNγ can induce an antiproliferative state in certain cell types.

[3] = tested on: 33 melanoma and 17 lung tumor cell lines classified as non-adenocarcinoma; assay: Preliminary study of IFNγ sensitivity of tumor cell lines; type: cell-based, human; settings: of each group (33 melanoma, 17 lung non-adenocarcinoma lines), data not shown
Description: as §1

[4] = 400 μg MCA, single s.c. dose, at 130 days

Molecule	tumor induction (p53−/+ mice)	MHC Class I Enhancement (MCS) (SK-LC-11)	MHC Class I Enhancement (MCS) (SK-LC-7)	MHC Class I Enhancement (MCS) (CALU-3)	MHC Class I Enhancement (MCS) (CALU-5)	MHC Class I Enhancement (MCS) (SK-LC-4)	MHC Class I Enhancement (MCS) (SK-LC-15)	MHC Class I Enhancement (MCS) (SK-LC-19)	MHC Class I Enhancement (MCS) (SK-LU-1)	MHC Class I Enhancement (MCS) (SK-LC-12)	MHC Class I Enhancement (MCS) (SK-LC-9)	MHC Class I Enhancement (MCS) (A457)	MHC Class I Enhancement (MCS) (SK-LC-2)	MHC Class I Enhancement (MCS) (SK-LC-16)	MHC Class I Enhancement (MCS) (SK-LC-10)	MHC Class I Enhancement (MCS) (A549)	MHC Class I Enhancement (MCS) (SK-LC-1)	MHC Class I Enhancement (MCS) (SK-LC-20)	also measured
COc1ccc(C)cc1N [p-cresidine]	tumors were induced	–	–	–	–	–	–	–	–	–	–	–	–	–	–	–	–	–	–
IFNα	–	13.8	37.2	17.0	0.0	36.7	79.6	25.1	16.7	12.7	53.4	27.1	16.7	10.9	22.6	21.8	18.7	25.9	sensitivity to IFNα (CALU-5): insensitive
Cc1ccc2cc3c(ccc4ccccc43)c3c2c1CC3 [MCA, 3-methylcholanthrene]	–	–	–	–	–	–	–	–	–	–	–	–	–	–	–	–	–	–	histology of induced tumors [1]: histologically indistinguishable fibrosarcomas; tumor development (wild type 129/Sv/Ev mice; 25 μg MCA): not; tumor development (wild type 129/Sv/Ev mice; 400 μg MCA): developed tumors; percentage of mice in which tumors were detected (over 5 mm) (wild type 129/Sv/Ev mice; [4]): 20%; MCA dose at which tumors formed (wild type 129/Sv/Ev mice; single s.c. dose, 130 days, Example 4): ≥ 100 µg; mice forming tumors at the lower MCA dose (IFNγR−/− mice; 25 μg MCA s.c., Example 4): high percentage; percentage of mice that developed tumors (over 5 mm) (IFNγR−/− mice; [4]): 50%; time at which tumors were detected (IFNγR−/− mice; all dose groups (25, 100, 400 μg MCA s.c.)): 90 days; tumor development compared with wild-type mice (IFNγR−/− mice; all doses examined (25, 100, 400 μg)): more frequently and at earlier times; lowest MCA dose at which tumor formation was detected (IFNγR−/− mice; single s.c. dose, within 130 days, Example 5): 6.25 µg; tumors in α chain knockout mice compared with wild-type controls (α chain knockout mice): more tumors; sarcomas at the injection site compared with normal MCA-treated mice [2]: higher frequency and with accelerated onset of tumor; frequency of tumors relative to IFNγR−/− mice (Stat1−/− mice; at every dose examined): approximately two times; lowest MCA dose at which tumors could be detected (Stat1−/− mice; single s.c. dose, within 130 days): 1.6 μg MCA/mouse
C1CC2OC2CC1C1CO1 (stereo not drawn) [VCD, 4-vinyl-1-cyclohexene diepoxide]	tumors were induced	–	–	–	–	–	–	–	–	–	–	–	–	–	–	–	–	–	–
B1	–	25.3	0.0	30.4	0.0	59.5	91.3	0.0	47.1	30.4	49.3	27.7	0.0	27.0	31.7	36.9	16.9	25.6	responsiveness to IFNγ (initiation of IFNγ-signaling or IFNγ dependent biologic response) (SK-LC-7): totally unresponsive; responsiveness to IFNγ (initiation of IFNγ-signaling or IFNγ dependent biologic response) (CALU-5): totally unresponsive; responsiveness to IFNγ (initiation of IFNγ-signaling or IFNγ dependent biologic response) (SK-LC-19; SL-LC-19 as printed): totally unresponsive; responsiveness to IFNγ (initiation of IFNγ-signaling or IFNγ dependent biologic response) (SK-LC-2): totally unresponsive; antiproliferative or anti-metabolic effects (RADgR.28.mgR cells): no antiproliferative or anti-metabolic effects; share of cell lines showing a quantitative reduction in IFNγ sensitivity [3]: approximately 33%
